Assay results: paper PMC4145316, “Cytotoxic and Apoptosis-Inducing Activity of Triterpene Glycosides from Holothuria scabra and Cucumaria frondosa against HepG2 Cells” (Marine Drugs, 2014)

What was measured:
[1] = tested on: human gastric cancer MKN-45 cells; details: read-out: IC50 against MKN-45 cells; cited from earlier work
[2] = tested on: human leukemia (K562) cells; assay: MTT cytotoxicity assay, K562 cells; assay type: cell-based; details: means ± SD (n = 3)
Description: (§1) Human hepatoma (HepG2), human cervical cancer (HeLa), human leukemia (K562) and human liver (HL-7702) cells were obtained by Shanghai Institute of Biochemistry and Cell Biology, and maintained in the logarithmic phase of growth in RPMI-1640 complete medium supplemented with 2 mM L-glutamine (Sigma Chemical Co., Saint Louis, MO, USA), 100 IU/mL penicillin, 100 μg/mL streptomycin and 10% FCS at 37 °C under humidified air with 5% CO2.
(§2) The effect of compounds 1–13 on the viability of HepG2, HeLa, K562 and HL-7702 cells was determined by MIT assay as described previously. Briefly, the tumor and normal cells were seeded at 1 × 10^4 cells/well in a 96-well microtiter plate and incubated at 37 °C in a humidified atmosphere with 5% CO2. After 24 h, compounds 1–13, the positive drug CDDP or RPMI-1640 medium were added into each well, and the plates were incubated at 37 °C for the indicated time. Each concentration was repeated four wells. 50 μL of MTT solution (2 mg/mL) was added to each well 4 h before incubation end, and incubated further for 4 h. The plates were centrifuged (1400× g, 5 min) and the untransformed MTT was removed carefully by pipetting. To each well, 150 μL of DMSO was added and the absorbance was evaluated in an ELISA reader at 570 nm after 15 min. The inhibitory rates and 50% inhibitory concentrations (IC50) values towards cell viability were calculated by NDST software. Each test was performed in triplicate.

[3] = tested on: human hepatoma (HepG2) cells; assay: MTT cytotoxicity assay, HepG2 cells; assay type: cell-based; details: means ± SD (n = 3)
Description: as §1, §2

[4] = tested on: human cervical cancer (HeLa) cells; assay: MTT cytotoxicity assay, HeLa cells; assay type: cell-based; details: means ± SD (n = 3)
Description: as §1, §2

HepG2 cells [5] = assay: HepG2 cell viability, MTT, 6 h and 12 h; assay type: cell-based, human
Description: To determine the effects of 1 on the viability of HepG2 cell, the cells were cultured with 1 at different concentrations for 6 h and 12 h, and cell viability was measured using MTT assay.
Figure 2 Effect of 1 on cell viability of HepG2 cells. HepG2 cells were treated with the various concentrations of 1 for 6 and 12 h, and cell viability was measured using the MTT assay. The values are presented as means ± SD (n = 5).
as §2

Top2a = tested on: Top2a; set-up: method as in PMID 19773249; details: interference in DNA binding, impairment of Top2-mediated DNA cleavage and relegation; cited from earlier work
HepG2 cells [6] = assay: Mitochondrial transmembrane potential, JC-1 staining; assay type: cell-based, human; details: 2.5, 2.75 and 3 μg/mL for 6 h
Description: Therefore, we measured the Δψm in 1-treated HepG2 cells and control cells using JC-1 staining, and the results were shown in Figure 4. The aggregated JC-1 within normal mitochondria in HepG2 cells was dispersed to the monomeric form (green fluorescence) after treatment with 1 for 6 h. […] After treatment with 1 at 3 μg/mL, the red fluorescence disappeared and pure green fluorescence only occurred in HepG2 cells.
After treatment with 1 at the concentration of 0, 2.5, 2.75 and 3 μg/mL for 6 h, the cells were harvested, washed twice with PBS, and then incubated with 500 μL of JC-1 staining solution (5 μg/mL) at 37 °C for 30 min [43]. The stained cells were rinsed twice with PBS and resuspended in medium. The Δψm was monitored by determining the relative amounts of dual emissions from mitochondrial JC-1 monomers (green fluorescence) to aggregates (red fluorescence) using an Olympus fluorescent microscope under Argon-ion 488 nm laser excitation.

COC1C(O)C(CO)OC(OC2C(O)C(CO)OC(OC3C(C)OC(OC4C(OC5CCC6(C)C7=CC(O)C89C(=O)OC(C)(CCCC(C)C)C8(O)CCC9(C)C7CCC6C5(C)C)OCC(OS(=O)(=O)O)C4O)C(O)C3O)C2O)C1O.[Na+] (stereo not drawn) [Echinoside A (1), Echinoside A]
IC50 [1]: 1860 nM
IC50 (μg/mL) K562 [2]: 1.61 ± 0.11 µg/mL
IC50 (μg/mL) HepG2 [3]: 1.50 ± 0.08 µg/mL
IC50 (μg/mL) HeLa [4]: 1.25 ± 0.16 µg/mL
cell viability of HepG2 cells at 2.25 μg/mL (HepG2 cells [5]; 2.25 μg/mL): hardly influenced cell viability
cell viability of HepG2 cells at 3 μg/mL (HepG2 cells [5]; 3 μg/mL): completely inhibited
effective concentration range for inhibiting survival of HepG2 cells (HepG2 cells [5]; MTT): 2.25−3 μg/mL
Top2 inhibition (Top2a): non-intercalative Top2 inhibitor
mitochondrial transmembrane potential (Δψm) (HepG2 cells [6]): significantly decreased
